From patent US20090298045A1, “Method For Selectively Expanding, Selecting And Enriching Stem/Progenitor Cell Populations” (Tel Hashomer-Medical Research, Infrastructure And Services …, priority 2004, published 2009)

Assays:
Format in all cases: cell-based, human
UCB-derived CD133+ cells = experiment: Ex vivo expansion of purified UCB-derived CD133+ cells with cytokines, CD133+ cell fraction by flow cytometry; conditions: for CD133+ cell population with cytostatic agent: colchicine 2.5 ng/ml, two weeks expansion; for Fold enrichment (CD133+): with vs without colchicine 2.5 ng/ml, two weeks
Description: Cells were obtained from human umbilical cord blood (UCB) after normal fall-term delivery. The cells were layered on a Ficoll-Hypaque gradient (1.077 g/ml Sigma), and centrifuged at 500 g for 30 minutes. The mononuclear cells in the interface layer were collected and washed three times in phosphate-buffered saline (PBS; Biological Industries) containing 0.5% Bovine serum albumin (BSA). To purify the CD133^+ cells, the mononuclear cell fraction was subjected to two cycles of immunomagnetic bead separation using a MiniMACS CD133 progenitor cell isolation kit (Miltenyi Biotec,), according to the manufacturer's recommendations.
(§1) Purified CD133^+ cells were cultured in 24-well culture plate at densities of 2-4×10^4 cells in alpha-MEM medium (Biological Industries) supplemented with 10% fetal calf serum (Biological Industries) and the following human recombinant cytokines (Pepro Tech, Inc., Rocky Hill, N.J., USA): Trombopoietin, interleukin-6, FLT-3 ligand and Stem Cell Factor, at final concentration of 50 ng/ml each as well as interleukin-3 and IL2 at 20 ng/ml, in the absence or presence of colchicine in a concentration scale as indicated. Cells were expanded at 37° C. in a humidified atmosphere of 5% CO2 in air.
(§2) Cultures were depopulated twice a week and a fresh medium in which growth factors and colchicine were added. At various time points, cells were counted after staining with trypan blue and harvested cells were used for enumeration of CD133^+ cells following immunophenotype analysis.
(§3) The cells were washed with a PBS solution containing 1% BSA and stained (at 4° C. for 30 min) with fluorescein isothiocyanate (FITC)- or phycoerythrin (PE)-conjugated antibodies that are specifically described in the next sections. Cells were washed in the abovementioned buffer and analyzed by flow cytometer (Becman coulter). Cells were passed at a rate of up to 1000 cells/second, using a 488-nm argon laser beam as the light source for excitation.
(§4) The percentage of CD133^+ cell fraction from total cells was determined by flow cytometry using. PE-anti-CD133^+ antibody (Miltenyi Biotec). Fold enrichment was calculated by dividing the CD133^+ cell percentage of culture growing with cytostatic agent by the CD133^+ cell percentage of culture growing without cytostatic agent. Since cultures were depopulated twice a week, the culture volume was calculated by multiplying the actual volume with the number of passages. Fold expansion was calculated by dividing the CD133^+ cell content of the culture by the initial number of cultured CD133^+ cells.

[1] = test system: CD34+CD38- early stem cell sub-population of UCB derived CD133+ cells; experiment: Determination of CD34+CD38- early stem cell subset in cultured CD133+ cells by flow cytometry; conditions: for CD34+38- cell population with cytostatic agent: colchicine 2.5 ng/ml, one week expansion; for Fold enrichment (CD34+38-): with vs without colchicine 2.5 ng/ml, one week
Description: as §1, §3
The percentages of early stem cell subsets were determined from the purified fresh and/or cultured CD133^+ cell fraction. Cells were dually stained with PE anti-CD34 and FITC anti-CD38 (DAKO) for determination of CD34^+ CD38^− cells by flow cytometry analyses with PE anti-CD133^+ antibody (Miltenyi Biotec).

[2] = test system: Fresh, enriched CD133+ stem cells; experiment: Cell counts and fold expansion of CD133+ stem cells after ex-vivo expansion; conditions: colchicine 2.5 ng/ml; for Fold expansion of CD133+ cells: 2 weeks vs T0
Description: as §1, §2, §4

[3] = Exp. 1, T0 0.4 × 10^3 CD133+ cells
[4] = Exp. 2, T0 0.2 × 10^3 CD133+ cells
[5] = Exp. 3, T0 0.4 × 10^3 CD133+ cells

COc1cc2c(c(OC)c1OC)-c1ccc(OC)c(=O)cc1[C@@H](NC(C)=O)CC2 [colchicine]
optimal concentration in which the highest CD133+ cells enrichment was achieved (UCB-derived CD133+ cells; 2 weeks expansion, three independent experiments, FIG. 3): 2.5 ng/mL
CD133+ cell population with cytostatic agent (UCB-derived CD133+ cells; Donor # 1 (first line)): 4%
Fold enrichment (CD133+) (UCB-derived CD133+ cells; Donor # 1 (first line)): 4
CD133+ cell population with cytostatic agent (UCB-derived CD133+ cells; Donor # 1): 7%
Fold enrichment (CD133+) (UCB-derived CD133+ cells; Donor # 1): 7
CD133+ cell population with cytostatic agent (UCB-derived CD133+ cells; Donor # 3): 15%
Fold enrichment (CD133+) (UCB-derived CD133+ cells; Donor # 3): 2.5
CD133+ cell population with cytostatic agent (UCB-derived CD133+ cells; Mean ± SD of three donors): 8.7 ± 5.7%
Fold enrichment (CD133+) (UCB-derived CD133+ cells; Mean ± SD of three donors): 4.5 ± 2.3
enrichment of UCB-derived CD133+ cell-fraction (in words) (UCB-derived CD133+ cells; concentration scale, 2 weeks expansion, FIG. 3): dose-dependent enrichment
percentage of CD34+CD38- sub-population, treated vs un-treated cultures (in words) ([1]; 1 week in culture): increase in the percentage
CD34+38- cell population with cytostatic agent ([1]; Donor # 3): 15%
Fold enrichment (CD34+38-) ([1]; Donor # 3): 1.7
CD34+38- cell population with cytostatic agent ([1]; Donor # 4): 5%
Fold enrichment (CD34+38-) ([1]; Donor # 4): 10
CD133+ cells, T(2 weeks), with colchicine [2, 3]: 5.4 × 10^3
Total cells, T(2 weeks), with colchicine [2, 3]: 135 × 10^3
Fold expansion of CD133+ cells ([2]; Exp. 1): (X 13.5)
CD133+ cells, T(2 weeks), with colchicine [2, 4]: 4.7 × 10^3
Total cells, T(2 weeks), with colchicine [2, 4]: 68 × 10^3
Fold expansion of CD133+ cells ([2]; Exp. 2): (X 23.5)
CD133+ cells, T(2 weeks), with colchicine [2, 5]: 4.1 × 10^3
Total cells, T(2 weeks), with colchicine [2, 5]: 27 × 10^3
Fold expansion of CD133+ cells ([2]; Exp. 3): (X 10.2)
